For one molecule, parasitemia ratio IPP rescue/non-rescue results are on record in PubChem BioAssay AID743076.

This experiment relates to P. falciparum blood stage, IPP rescue, flow cytometry 72 h. Briefly: apicoplast-targeting antimalarials identified by IPP supplementation – P. falciparum blood stage, mechanism study for antimalarial apicoplast targeting (AID 743076). Particulars: at 5 µM; active compounds read high.

For `O=C(O)C1Cc2c([nH]c3ccccc23)C(c2ccc(Cl)cc2Cl)N1` (stereo unspecified), the parasitemia ratio IPP rescue/non-rescue is 6.32.
